Laboratory results from article PMC11985751, “Synthesis, bioactivity, and molecular docking studies: novel arylpiperazine derivatives as potential new-resistant AR antagonists” (Frontiers in Chemistry, 2025).

Columns and labels:
LNCaP = test: In vitro cytotoxicity, CCK-8 assay; format: cell-based, human; conditions: LNCaP cells, CCK-8, mean ± SD of three trials
Protocol: (§1) PC-3 and WPMY-1 cells were cultured in Dulbecco’s modiffcation Eagle’s medium (DMEM, Invitrogen, Carlsbad, CA, United States) supplemented with 10% fetal bovine serum (FBS, Hyclone, Logan, UT, United States), 100 U/mL penicillin and 0.1 mg/mL streptomycin (Invitrogen). DU145 cells were cultured in RPMI1640 media supplemented with 10% fetal bovine serum (FBS, Hyclone), 100 U/mL penicillin and 0.1 mg/mL streptomycin (Invitrogen). LNCaP cells were cultured in F12 media supplemented with 10% fetal bovine serum (FBS, Hyclone), 100 U/mL penicillin and 0.1 mg/mL streptomycin (Invitrogen). The cells were incubated at 37°C in a humidified atmosphere with 5% CO2([Chen et al., 2025]; [Jiang et al., 2024]).
The proliferative capacity of cells was evaluated through the implementation of a Cell Counting Kit-8 (CCK-8) assay, supplied by Dojindo (Japan), to quantify cellular growth. Post-transfection, cells were dispensed into a 96-well microplate at a density of 3 × 10^3 cells per well and incubated for intervals of 0, 24, 48, 72, 96, and 120 h. Following this, 10 μL of the CCK-8 solution was introduced into each well and the plates were returned to the incubator for an additional 2-h period at 37°C under 5% CO2 conditions. Absorbance readings at 450 nm were subsequently taken using an ELISA reader manufactured by Bio Tek (United States) ([Chen et al., 2022]; [Zhou et al., 2024]).
(§2) The compound concentrations were set at 30, 15, 7.5, 3.75, 1.88, and 0.94 μmol/L. The absorbance (A) was measured at 450 nm using a microplate reader. […] All experiments were repeated three times under identical conditions, and the mean value was taken as the final result.
(§3) The cytotoxic activity of derivatives 5–24 against three human prostate cancer cell lines (PC-3, LNCaP, and DU145) and one type of human normal prostate epithelial cells was evaluated using the CCK-8 method.

PC-3 = test: In vitro cytotoxicity, CCK-8 assay; format: cell-based, human; conditions: Homo sapiens, PC-3, PC-3 cells, CCK-8, mean ± SD of three trials
Protocol: as §1, with “2024]). […]” for “2024]).”
as §2, §3

DU145 = test: In vitro cytotoxicity, CCK-8 assay; format: cell-based; conditions: Homo sapiens, DU-145; DU145 cells, CCK-8, mean ± SD of three trials
Protocol: as §1, with “2024]). […]” for “2024]).”
as §2, §3

AR-LBD (GST) = molecular target: T1, AR-LBD (GST) (Rattus norvegicus, UniProt P15207); test: Fluorescence polarization, PolarScreen AR Competitor Assay, Green
T1 sequence (P15207 651-882 limits assumed): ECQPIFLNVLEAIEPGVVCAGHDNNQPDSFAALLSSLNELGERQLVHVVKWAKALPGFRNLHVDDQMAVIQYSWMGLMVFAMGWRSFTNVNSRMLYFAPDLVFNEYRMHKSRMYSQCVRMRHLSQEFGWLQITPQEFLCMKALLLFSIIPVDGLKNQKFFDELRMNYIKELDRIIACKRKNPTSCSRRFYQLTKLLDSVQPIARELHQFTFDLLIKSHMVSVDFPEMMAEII
Protocol: Brieffy, the assay entails titration of the test compound against a preformed complex of Fluormone™AL Green and the AR-LBD (GST). […] Data analysis for the ligand binding assays was performed using Prism software (GraphPad Software, Inc.).

AR = molecular target: T2, AR (Homo sapiens, UniProt P10275); test: AR reporter gene (luciferase) assay, co-treatment with 1 nM R1881; format: cell-based; conditions: 10 μM compound, inhibition rate as ratio to R1881 control, read-out: AR antagonistic activity% (10 μM)
T2 sequence (P10275 1-920): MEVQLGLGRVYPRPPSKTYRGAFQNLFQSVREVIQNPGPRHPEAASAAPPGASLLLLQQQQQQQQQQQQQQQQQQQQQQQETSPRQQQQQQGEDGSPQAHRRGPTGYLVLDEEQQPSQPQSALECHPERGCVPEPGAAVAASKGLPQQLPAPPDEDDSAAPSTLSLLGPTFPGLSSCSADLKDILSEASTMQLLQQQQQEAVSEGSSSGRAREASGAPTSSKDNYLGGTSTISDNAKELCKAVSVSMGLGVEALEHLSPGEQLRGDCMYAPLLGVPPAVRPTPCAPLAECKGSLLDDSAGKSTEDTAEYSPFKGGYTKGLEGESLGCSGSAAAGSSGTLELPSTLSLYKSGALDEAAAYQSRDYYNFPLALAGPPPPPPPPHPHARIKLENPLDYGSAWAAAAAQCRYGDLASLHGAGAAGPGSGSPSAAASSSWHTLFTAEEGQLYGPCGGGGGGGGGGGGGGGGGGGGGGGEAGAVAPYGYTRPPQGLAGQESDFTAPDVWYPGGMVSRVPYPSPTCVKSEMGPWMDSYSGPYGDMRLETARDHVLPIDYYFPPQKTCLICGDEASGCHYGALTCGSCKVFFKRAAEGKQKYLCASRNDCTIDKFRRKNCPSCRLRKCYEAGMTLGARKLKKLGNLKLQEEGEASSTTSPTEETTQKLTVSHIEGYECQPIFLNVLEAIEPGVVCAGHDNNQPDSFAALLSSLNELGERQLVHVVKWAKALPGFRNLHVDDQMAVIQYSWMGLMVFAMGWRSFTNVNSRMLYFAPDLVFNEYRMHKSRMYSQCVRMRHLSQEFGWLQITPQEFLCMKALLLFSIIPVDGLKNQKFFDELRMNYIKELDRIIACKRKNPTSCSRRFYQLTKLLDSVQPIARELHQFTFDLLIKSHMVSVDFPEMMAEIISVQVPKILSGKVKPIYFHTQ
Protocol: RLUs were measured using a luminometer (GloMaxTM 96-Microplate Luminometer, Promega) and are reported as the mean ± SEM of three individual experiments. For agonists, fold of induction = LUinduced/RLUuninduced. For antagonists, % of control = 100 × RLU (agonist + antagonist)/RLU (agonist alone). All RLUs were normalized against ffreffy RLUs/Renilla RLUs. Data are expressed as EC50/IC50 values in μM, and the IC50 of […] (μM) was calculated by plotting the data using nonlinear regression analysis in Graph-Pad Prism 5 software.

WPMY-1 = test: In vitro cytotoxicity, CCK-8 assay (normal prostatic epithelial cells); format: cell-based; conditions: Homo sapiens; WPMY-1 normal prostatic epithelial cells, CCK-8, mean ± SD of three trials
Protocol: as §1, with “2024]). […]” for “2024]).”
as §2, §3

IC50 (AR-LBD (GST)) [µM] | activity at 10 µM (AR) [%] | Structure (SMILES) | IC50 (LNCaP; Homo sapiens, LNCaP) [µM] | IC50 (PC-3) [µM] | IC50 (DU145) [µM] | IC50 (WPMY-1) [µM] | IC50 (LNCaP) [µM]
3.02 ± 0.24 | 40.3 ± 1.2 | c1ccc(C(c2ccccc2)N2CCN(Cc3ccc(CCOc4cccc5ccccc45)cc3)CC2)cc1 [Compound 22, 1-benzhydryl-4-(4-(2-(naphthalen-1-yloxy)ethyl)benzyl)piperazine] | 6.78 ± 0.14 | 10.1 ± 0.17 | 15.76 ± 0.09 | 33.16 ± 0.15 | –
– | – | Clc1ccccc1OCCc1ccc(CN2CCN(C(c3ccccc3)c3ccccc3)CC2)cc1 [Compound 13, 1-benzhydryl-4-(4-(2-(2-chlorophenoxy)ethyl)benzyl)piperazine] | 12.2 ± 0.25 | 15.35 ± 0.08 | 21.24 ± 0.16 | 17.83 ± 0.17 | –
1.01 ± 0.03 | > 60 | Cc1ccccc1OCCc1ccc(CN2CCN(C(c3ccccc3)c3ccccc3)CC2)cc1 [Compound 19, 1-benzhydryl-4-(4-(2-(o-tolyloxy)ethyl)benzyl)piperazine] | – | – | 0.87 ± 0.04 | > 50 | –
– | – | Cc1ccc(OCCc2ccc(CN3CCN(C(c4ccccc4)c4ccccc4)CC3)cc2)cc1 [Compound 15, 1-benzhydryl-4-(4-(2-(p-tolyloxy)ethyl)benzyl)piperazine] | 9.29 ± 0.23 | 20.49 ± 0.12 | 13.7 ± 0.14 | 14.72 ± 0.14 | –
– | – | Ic1ccc(OCCc2ccc(CN3CCN(C(c4ccccc4)c4ccccc4)CC3)cc2)cc1 [Compound 9, 1-benzhydryl-4-(4-(2-(4-iodophenoxy)ethyl)benzyl)piperazine] | > 50 | 15.2 ± 0.19 | > 50 | > 50 | –
– | – | Clc1ccc(OCCc2ccc(CN3CCN(C(c4ccccc4)c4ccccc4)CC3)cc2)cc1Cl [Compound 10, 1-benzhydryl-4-(4-(2-(3,4-dichlorophenoxy)ethyl)benzyl)piperazine] | > 50 | 17.44 ± 0.07 | > 50 | > 50 | –
1.72 ± 0.12 | > 60 | Brc1ccc(OCCc2ccc(CN3CCN(C(c4ccccc4)c4ccccc4)CC3)cc2)cc1 [Compound 23, 1-benzhydryl-4-(4-(2-(4-bromophenoxy)ethyl)benzyl)piperazine] | < 5 | – | 1.42 ± 0.11 | > 50 | 3.86 ± 0.13
1.14 ± 0.12 | > 60 | c1ccc(C(c2ccccc2)N2CCN(Cc3ccc(CCOc4cccc5c4CCCC5)cc3)CC2)cc1 [Compound 17, 1-benzhydryl-4-(4-(2-((5,6,7,8-tetrahydronaphthalen-1-yl)oxy)ethyl)benzyl)piperazine] | – | – | 7.32 ± 0.08 | > 50 | –
– | – | COc1ccccc1N1CCN(CC(O)COc2cccc3ccccc23)CC1 (centres unmarked) [Naftopidil, reference compound] | 22.4 ± 0.61 | 42.1 ± 0.79 | 34.58 ± 0.31 | > 50 | –
2.01 ± 0.15 | 51.2 ± 1.3 | Clc1cc(Cl)cc(OCCc2ccc(CN3CCN(C(c4ccccc4)c4ccccc4)CC3)cc2)c1 [Compound 11, 1-benzhydryl-4-(4-(2-(3,5-dichlorophenoxy)ethyl)benzyl)piperazine] | > 50 | – | 17.43 ± 0.04 | > 50 | –
– | – | Cc1cccc(OCCc2ccc(CN3CCN(C(c4ccccc4)c4ccccc4)CC3)cc2)c1 [Compound 12, 1-benzhydryl-4-(4-(2-(m-tolyloxy)ethyl)benzyl)piperazine] | 19.6 ± 0.23 | > 50 | 34.43 ± 0.15 | 28.54 ± 0.16 | –
1.66 ± 0.12 | > 60 | Cc1ccc(OCCc2ccc(CN3CCN(C(c4ccccc4)c4ccccc4)CC3)cc2)cc1C [Compound 20, 1-benzhydryl-4-(4-(2-(3,4-dimethylphenoxy)ethyl)benzyl)piperazine] | – | – | 3.89 ± 0.14 | > 50 | –
– | – | c1ccc(C(c2ccccc2)N2CCN(Cc3ccc(CCOc4ccc5c(c4)CCCC5)cc3)CC2)cc1 [Compound 18, 1-benzhydryl-4-(4-(2-((5,6,7,8-tetrahydronaphthalen-2-yl)oxy)ethyl)benzyl)piperazine] | > 50 | 5.02 ± 0.12 | 14.4 ± 0.15 | > 50 | –
– | – | N#Cc1ccc(OCCc2ccc(CN3CCN(C(c4ccccc4)c4ccccc4)CC3)cc2)cc1 [Compound 8, 4-(4-((4-benzhydrylpiperazin-1-yl)methyl)phenethoxy)benzonitrile] | 22.36 ± 0.2 | 12.54 ± 0.11 | 19.83 ± 0.14 | 17.56 ± 0.12 | –
– | – | Brc1ccccc1OCCc1ccc(CN2CCN(C(c3ccccc3)c3ccccc3)CC2)cc1 [Compound 14, 1-benzhydryl-4-(4-(2-(2-bromophenoxy)ethyl)benzyl)piperazine] | > 50 | 19.12 ± 0.16 | > 50 | > 50 | –
– | – | c1ccc(OCCc2ccc(CN3CCN(C(c4ccccc4)c4ccccc4)CC3)cc2)cc1 [Compound 5, 1-benzhydryl-4-(4-(2-phenoxyethyl)benzyl)piperazine] | > 50 | 13.08 ± 0.12 | > 50 | > 50 | –
– | – | Fc1ccc(OCCc2ccc(CN3CCN(C(c4ccccc4)c4ccccc4)CC3)cc2)cc1 [Compound 6, 1-benzhydryl-4-(4-(2-(4-fluorophenoxy)ethyl)benzyl)piperazine] | > 50 | 34.39 ± 0.17 | > 50 | > 50 | –
– | – | CCOc1ccc(OCCc2ccc(CN3CCN(C(c4ccccc4)c4ccccc4)CC3)cc2)cc1 [Compound 16, 1-benzhydryl-4-(4-(2-(4-ethoxyphenoxy)ethyl)benzyl)piperazine] | > 50 | 13.6 ± 0.09 | > 50 | > 50 | –
